Consider 72 compounds from PubChem BioAssay AID493003 (Sanford-Burnham Center for Chemical Genomics, 2010).

Calls of active or inactive are those of the source. How the calls were made is not given here.

The test deals with S. cerevisiae tim10-1 mutant growth, luminescence. As to the kind of experiment: growth inhibitors of tim10-1 mutant yeast, dose response, luminescence, S. cerevisiae, uHTS hits (AID 493003).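 Further: yeast growth measured after about 22 hours at 25 °C.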
In the case of `Cc1cc(C)cc(NC(=O)c2ccc(Cn3nc(C)c(Cl)c3C)o2)c1`, the IC50 is 68.7 µM. To `Cc1ccc(NC(=O)c2cc(S(=O)(=O)NCCC3=CCCCC3)ccc2F)cc1` belongs 10.8 µM; to `Cc1ccc(OCC(=O)O/N=C(\N)Cc2ccc(Cl)cc2)cc1`, 9.22 µM. As to `O=C(Nc1cc(Sc2ccccn2)cc([N+](=O)[O-])c1)c1cccc(Cl)c1`, the IC50 is 34.9 µM. In the case of `COc1ccccc1C(=O)Nc1ccc(S(=O)(=O)N2CCCCC2)cc1` it was 24.9 µM. In the case of `Fc1ccc(-c2csc3ncnc(Nc4ccc(N5CCOCC5)cc4)c23)cc1` it was 41.2 µM; in that of `C/C(=N\N=c1/sc2ccccc2n1C)c1ccccn1`, 45.7 µM. Turning to `CCOC(=O)/C=C/C(=O)OCC(=O)Nc1ccc([N+](=O)[O-])cc1`, the IC50 is 8.19 µM. Turning to `Cc1ccc(CNC(=O)c2ccc(Cn3nc(C)c(Cl)c3C)o2)cc1`, the IC50 is 10.3 µM. In the case of `Cc1cc(N(CCO)CCO)ccc1N=Nc1cc(F)ccc1F` it was 26.1 µM; in that of `COc1cc(/C=N/N=C2/C(=O)Nc3ccccc32)cc(OC)c1O`, 30.1 µM.

`Cc1c(C(=O)N2CCN(c3ccc(C(F)(F)F)cn3)CC2)oc2ccccc12`: the IC50 is 41.6 µM.

In the case of `Cn1ncc2c(Nc3cccc(Cl)c3)nc(Nc3cccc(Cl)c3)nc21`, the IC50 is 24.4 µM. Regarding `O=c1cc(-c2ccc(C3CCCCC3)cc2)[nH][nH]1`, the IC50 was 29.5 µM. To `COc1ccc(C(=O)O/N=C(\N)c2ccc(Cl)cc2)cc1` belongs 13.3 µM; to `COc1ccc(N2C(=O)CC(Sc3nc4ccccc4s3)C2=O)cc1` (configuration not stated), 32.5 µM; to `CN(C)c1ccc(-[n+]2c(-c3ccccc3)cc(-c3ccccc3)cc2-c2ccccc2)cc1`, 23.7 µM. Turning to `CC1(CC(=O)N/N=C/c2ccc(OCc3ccc(Cl)cc3Cl)cc2)OCCCO1`, the IC50 was 5.77 µM.

As for `CCn1c(CSc2nc3ccccc3s2)n[nH]c1=S`, the IC50 was 49.4 µM. In the case of `Cc1c(C)n(C)c2ccc(C(=O)Nc3cccc4ccccc34)cc12` it was > 100 µM (inactive); in that of `CC1=CC(C)(C)N2C(=O)C(=O)c3cc(OC(=O)c4ccco4)cc1c32`, 33.4 µM. To `COc1ccc(/C(N)=N/OC(=O)c2ccc3c(c2)OCO3)cc1` belongs 14.9 µM; to `CCc1cccc(NC(=O)CS(=O)Cc2nc(-c3ccc(C)cc3)oc2C)c1` (configuration not stated), 27 µM. For the compound `COc1ccc(/C=C/C(=O)c2ccccc2)cc1Cn1nnc2ccccc21`, the IC50 was 6.4 µM. To `COc1ccccc1N1CCN(CC(=O)Nc2ccc(Cl)c(C(F)(F)F)c2)CC1` belongs 58.7 µM; to `OC(COc1ccccc1)Cn1c2ccccc2c2ccccc21` (configuration not stated), 29.4 µM; to `C/C(=N\NC(=S)Nc1cccc(C)c1)c1cc2ccccc2o1`, 47.7 µM. In the case of `O=C(O)c1ccc(C=C(c2nc3ccccc3s2)c2nc3ccccc3s2)cc1` it was > 100 µM (inactive); in that of `COc1ccc(NCc2nnc(SCc3ccc(Cl)cc3)n2-c2ccccc2)cc1`, 17.4 µM. In the case of `O=C(c1ccco1)N1CCN(c2ncnc3scc(-c4ccccc4)c23)CC1` it was 17.7 µM; in that of `Cc1[nH]c2ccccc2c1C(O)CN1CCN(c2cccc(C(F)(F)F)c2)CC1` (configuration not stated), 21.3 µM; in that of `Clc1ccccc1Nc1nnc(-c2ccncc2)s1`, 52.7 µM. With `Cc1nn(-c2ccccc2)c(Cl)c1C(=O)N1CCN(c2ncnc3c2cnn3-c2ccccc2)CC1`, the IC50 is > 100 µM (inactive). In the case of `CN1/C(=C\C(=O)Nc2ccc(Br)cc2)C(C)(C)c2ccccc21` it was 38.7 µM; in that of `Cc1cccc(NC(=S)N/N=C2/CCCCc3ccccc32)c1`, 9.98 µM.

Consider `Cc1nc(CN2CCN(S(=O)(=O)c3c(Cl)cc(Br)cc3Cl)CC2)cs1`, for which the IC50 was 18.6 µM. To `O=C(/C=C\c1ccc(-c2ccccc2)o1)c1ccccc1` belongs 5.47 µM; to `CC1=CC(=O)C=C(C)C1=NOC(=O)/C=C\c1ccccc1`, 42.4 µM.

As to `Cn1nc(-c2ccccc2)cc1NC(=O)Nc1ccc(C(C)(C)C)cc1`, the IC50 is 20.3 µM. In the case of `Clc1ccc(CNc2nc(CN3CCOCC3)nc3scc(-c4ccccc4)c23)cc1` it was 13.3 µM; in that of `Nc1c(C(=O)Nc2ccccc2)c2nc3ccccc3nc2n1CCCN1CCOCC1`, 8.41 µM; in that of `Nc1nc(-c2ccc(Br)s2)c(Br)s1`, 23.5 µM. To `Cc1ccc2nc(N3CCN(Cc4nnnn4Cc4ccccc4)CC3)c(C#N)cc2c1` belongs 81.3 µM; to `Cc1ccc2cc3cc(C(=O)NCCCN4CCc5ccccc5C4)oc3nc2c1`, > 100 µM (inactive); to `Cc1ccc(/C(N)=N/OC(=O)N2CCOCC2)cc1`, 24.5 µM. Regarding `C=CCN(C(=O)c1cccc(S(=O)(=O)N2CCN(C)CC2)c1)c1nc(-c2ccccc2)cs1`, the IC50 was 46.8 µM. To `CCCCCCCCCCOC(=O)Cn1c(COc2ccccc2OC)[n+](C)c2ccccc21` belongs 10.9 µM; to `COc1ccc(Cl)cc1NC(=S)NCCc1ccc(F)cc1`, 7.09 µM. In the case of `O=C(C1CCCN(S(=O)(=O)c2cccc3nsnc23)C1)N1CCc2ccccc21` (configuration not stated) it was 81.1 µM. In the case of `Cc1ccc(C)c(S(=O)(=O)ON2C(=O)c3ccccc3C2=O)c1` it was 22.1 µM; in that of `Cc1nc(Nc2ccc(Cl)cc2Cl)sc1C(=O)Nc1ccccc1`, > 100 µM (inactive). On to `Fc1ccccc1CNc1cc(Cl)cc(Cl)c1`, for which the IC50 is 26 µM. Regarding `O=[N+]([O-])c1ccc2oc(C(O)c3cccc(Cl)c3)cc2c1` (configuration not stated), the IC50 is 15.1 µM. To `O=C(Nc1nccs1)c1ccc(Br)c(S(=O)(=O)N2CCOCC2)c1` belongs 27.7 µM; to `CCCC(=O)NC(=S)Nc1ccc(Cl)cn1`, 30.1 µM; to `NC(=O)C1CCN(C2CC(=O)N(c3ccc(F)c(Cl)c3)C2=O)CC1` (configuration not stated), 21.3 µM.

Turning to `Cc1cccc(Oc2cc(NC(=O)c3ccccc3)cc([N+](=O)[O-])c2)c1`, the IC50 was 20.4 µM. In the case of `Cn1c(N2CCOCC2)nc(-c2ccccc2)c1-c1ccccc1` it was 22.9 µM; in that of `CCCN1C(=O)/C(=N\OCC(=O)Nc2ccc(C(C)C)cc2)c2ccccc21`, 60.9 µM; in that of `N/C(=N\OC(=O)CCCOc1ccc(Cl)cc1Cl)c1ccccn1`, 34 µM.

In the case of `Fc1ccccc1CNC(=S)Nc1cccc(C(F)(F)F)c1`, the IC50 was 10.5 µM.

As to `Cc1cc2c(cc1C)CSC(c1ccccc1O)SC2`, the IC50 is 20.7 µM. To `Cc1nnc(SC2CC(=O)N(c3ccccc3)C2=O)s1` (configuration not stated) belongs 31.1 µM; to `COc1ccc(OC)c(N=c2ssnc2Cl)c1`, 21 µM.

`Nc1nc(-c2ccc(Br)cc2)cs1`: the IC50 was 16.9 µM. For `Cc1cc(C)cc(NC(=O)c2cc(S(=O)(=O)NCc3ccco3)ccc2F)c1`, the IC50 is 32.3 µM. In the case of `COc1ccc(-c2cn3c(C)c(C(=O)N4CCc5ccccc5C4)sc3n2)cc1` it was 40 µM; in that of `S=C(NN=C1C2CC3CC(C2)CC1C3)Nc1ccccc1`, 19.4 µM; in that of `S=C1NC(c2cccs2)=CC(c2ccc(Br)cc2)N1` (configuration not stated), 18.1 µM. In the case of `CCOC(=O)c1sc(-c2ccc(Br)cc2)cc1N` it was 18.6 µM; in that of `Cc1ccccc1OCC(=O)Nc1ccc(Cc2ccncc2)cc1`, 41.7 µM; in that of `COc1ccc(-c2cc(-c3ccc(Cl)cc3)n[nH]2)c(O)c1`, 27.1 µM.

In general, IC50 refers to the point on the concentration scale where inhibition reaches its midpoint.
